# Read-outs that look alike come from different tables or passages of the source.
# How the values were obtained:
# [1] = test system: toxicologically relevant rat genes (rat CT array); conditions: rat, in vivo
# [2] = test system: Sprague Dawley rats; conditions: rat, in vivo; for Liver Necrosis / Score (histopathology liver necrosis severity score): ip
# In short: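 Toxicity calls (necrosis present or absent at 72 h) and histopathology scores were correlated with tissue gene expression from Crl:CD Sprague Dawley rats. Animals, usually 3 treated with compound by i.p. route and 3 given vehicle, were killed at 6, 24 or 72 h and tissues frozen immediately in liquid nitrogen.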
compound,measurement,setting,value
CN(C)[C@@H]1C(O)=C(C(N)=O)C(=O)[C@@]2(O)C(O)=C3C(=O)c4c(O)cccc4[C@@](C)(O)[C@H]3C[C@@H]12 [tetracycline],14-3-3 zeta expression,[1],0.7335
same,60S ribosomal protein L6 expression,[1],1.38
same,Adenine nucleotide translocator 1 expression,[1],1.332
same,Alpha-1 microglobulin/bikunin precursor (Ambp) expression,[1],1.73
same,"Alpha-2-macroglobulin, sequence 2 expression",[1],1.2
same,Alpha-2-microglobulin expression,[1],0.5107
same,Alpha-prothymosin expression,[1],1.454
same,Alpha-tubulin expression,[1],0.9701
same,Apolipoprotein AII expression,[1],0.2962
same,Apolipoprotein C1 expression,[1],1.791
same,Aquaporin-3 (AQP3) expression,[1],0.9307
same,Beta-actin expression,[1],0.78
same,"Beta-actin, sequence 2 expression",[1],0.5941
same,"Beta-tubulin, class I expression",[1],0.7321
same,Betaine homocysteine methyltransferase (BHMT) expression,[1],0.2575
same,Biliverdin reductase expression,[1],0.7455
same,CDK108 expression,[1],0.7153
same,Calpactin I heavy chain expression,[1],1.165
same,Calpain 2 expression,[1],1.216
same,"Cathepsin L, sequence 2 expression",[1],1.097
same,Cathepsin S expression,[1],1.473
same,Cholesterol esterase expression,[1],0.955
same,Cofilin expression,[1],1.77
same,Collagen type II expression,[1],1.355
same,Cyclin D1 expression,[1],1.265
same,Cystatin C expression,[1],1.57
same,Cytochrome P450 2A3 expression,[1],0.8495
same,Cytochrome P450 2C11 expression,[1],0.8002
same,Cytochrome P450 2C23 expression,[1],1.592
same,Dynamin-1 (D100) expression,[1],0.9613
same,Elongation factor-1 alpha expression,[1],1.049
same,Equilbrative nitrobenzylthioinosine-sensitive nucleoside transporter expression,[1],1.39
same,F1-ATPase beta subunit expression,[1],1.072
same,Fatty acid synthase expression,[1],0.837
same,"Gamma-actin, cytoplasmic expression",[1],1.057
same,Glutathione S-transferase theta-1 expression,[1],1.085
same,Glycine methyltransferase expression,[1],0.5811
same,Heme oxygenase expression,[1],1.421
same,High affinity IgE receptor gamma chain (FcERIgamma) expression,[1],1.193
same,Hypoxanthine-guanine phosphoribosyltransferase expression,[1],0.7473
same,IgE binding protein expression,[1],1.055
same,"Insulin-like growth factor I, exon 6 expression",[1],0.8256
same,JNK1 stress activated protein kinase expression,[1],0.6582
same,Melanoma-associated antigen ME491 expression,[1],1.77
same,Multidrug resistant protein-1 expression,[1],1.041
same,Multidrug resistant protein-2 expression,[1],0.8907
same,N-hydroxy-2-acetylaminofluorene sulfotransferase (ST1C1) expression,[1],1.531
same,"NADP-dependent isocitrate dehydrogenase, cytosolic expression",[1],1.608
same,NIPK expression,[1],0.7421
same,Nucleoside diphosphate kinase beta isoform expression,[1],1.032
same,Organic cation transporter 3 expression,[1],1.233
same,Ornithine decarboxylase expression,[1],0.9438
same,Osteoactivin expression,[1],1.112
same,Paraoxonase 1 expression,[1],2.144
same,Phase-1 RCT-24 expression,[1],0.8327
same,Phase-1 RCT-36 expression,[1],0.8652
same,Phase-1 RCT-43 expression,[1],1.003
same,Phase-1 RCT-58 expression,[1],1.737
same,Phase-1 RCT-109 expression,[1],0.5933
same,Phase-1 RCT-117 expression,[1],0.8447
same,Phase-1 RCT-146 expression,[1],0.9475
same,Phase-1 RCT-149 expression,[1],0.6559
same,Phase-1 RCT-173 expression,[1],0.5698
same,Phase-1 RCT-179 expression,[1],1.528
same,Phase-1 RCT-207 expression,[1],0.6995
same,Phase-1 RCT-211 expression,[1],0.6151
same,Phase-1 RCT-227 expression,[1],1.846
same,Phase-1 RCT-290 expression,[1],0.417
same,Poly(ADP-ribose) polymerase expression,[1],0.9896
same,Presenilin-1 expression,[1],2.114
same,"Protein tyrosine phosphatase, receptor type, D expression",[1],1.295
same,"Pyruvate kinase, muscle expression",[1],0.6785
same,Ribosomal protein L13A expression,[1],0.6452
same,Ribosomal protein S9 expression,[1],1.161
same,Ribosomal protein S17 expression,[1],1.358
same,Stathmin expression,[1],0.7954
same,"Stearyl-CoA desaturase, liver expression",[1],0.1376
same,Thioredoxin-1 (Trx1) expression,[1],0.7172
same,Thymosin beta-10 expression,[1],0.6534
same,Tissue plasminogen activator expression,[1],0.9708
same,Transitional endoplasmic reticulum ATPase expression,[1],1.373
same,Ubiquitin conjugating enzyme (RAD 6 homologue) expression,[1],1.177
same,Uncoupling protein 2 expression,[1],0.7333
same,Zinc finger protein expression,[1],1.116
same,"alpha-1,2-fucosyltransferase expression",[1],0.495
same,p55CDC expression,[1],0.9757
same,{Phase-1 RCT 98} expression,[1],1.16
same,{Ribosomal protein 16} expression,[1],1.197
same,toxicity at the high dose,[2],produced toxicity
same,toxicity at the low dose,[2],not at the low dose
same,Liver Necrosis,[2]; 50 mg/kg,no
same,Score (histopathology liver necrosis severity score),[2]; 50 mg/kg,1
same,Liver Necrosis,[2]; 150 mg/kg,Yes
same,Score (histopathology liver necrosis severity score),[2]; 150 mg/kg,2

# Source: US20040076974A1, “Liver necrosis predictive genes” (priority 2002, published 2004)
